This is an account of results in US10562916B2, “Substituted quinoxalines as PDE-10 inhibitors” (SUNOVION PHARMACEUTICALS INC., priority 2010, dated 2020).

SMILES strings stand for the structures.

In the experiment the target is HEK293 cells over-expressing PDE-10A (Homo sapiens (Human), UniProt Q9Y233). Put plainly: whole cell PDE-10 assay (intracellular cGMP, EIA). Format: cell-based. The settings on record: concentration that elevated intracellular cyclic nucleotide 300% above baseline; HEK293 over-expressing PDE-10A, 30 min compound, 200 μM sodium nitroprusside 2 min.
HEK293 cells over-expressing PDE-10A, sequence (Q9Y233 whole entry): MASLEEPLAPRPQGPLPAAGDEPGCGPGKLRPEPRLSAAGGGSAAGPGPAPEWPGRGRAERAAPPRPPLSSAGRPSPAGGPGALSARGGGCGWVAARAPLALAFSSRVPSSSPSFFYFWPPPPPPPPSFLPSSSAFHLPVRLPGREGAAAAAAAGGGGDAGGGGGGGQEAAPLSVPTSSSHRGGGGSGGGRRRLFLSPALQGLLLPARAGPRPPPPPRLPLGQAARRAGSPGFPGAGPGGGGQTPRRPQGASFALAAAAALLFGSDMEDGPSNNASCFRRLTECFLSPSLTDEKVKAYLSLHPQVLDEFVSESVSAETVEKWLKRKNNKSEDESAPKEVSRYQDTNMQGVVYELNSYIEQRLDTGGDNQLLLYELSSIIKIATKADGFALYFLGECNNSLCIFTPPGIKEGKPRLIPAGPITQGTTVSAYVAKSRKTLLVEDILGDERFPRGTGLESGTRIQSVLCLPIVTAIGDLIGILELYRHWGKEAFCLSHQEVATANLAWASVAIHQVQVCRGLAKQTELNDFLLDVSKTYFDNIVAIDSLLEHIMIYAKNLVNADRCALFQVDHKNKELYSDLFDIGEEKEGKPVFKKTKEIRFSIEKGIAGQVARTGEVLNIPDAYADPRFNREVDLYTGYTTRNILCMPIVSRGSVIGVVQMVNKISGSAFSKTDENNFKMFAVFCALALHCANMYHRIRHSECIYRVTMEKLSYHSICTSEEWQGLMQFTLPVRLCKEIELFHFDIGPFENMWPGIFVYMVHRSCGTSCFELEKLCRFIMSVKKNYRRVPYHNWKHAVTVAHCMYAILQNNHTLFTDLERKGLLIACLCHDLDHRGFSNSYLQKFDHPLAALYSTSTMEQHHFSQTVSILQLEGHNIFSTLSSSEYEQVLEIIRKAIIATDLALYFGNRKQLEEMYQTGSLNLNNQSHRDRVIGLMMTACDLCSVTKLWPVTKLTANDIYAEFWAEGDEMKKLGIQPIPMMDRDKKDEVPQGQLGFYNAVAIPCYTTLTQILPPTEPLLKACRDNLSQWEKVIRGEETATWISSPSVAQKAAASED
As to `c1ccc(-c2c[nH]c(Sc3cnc4ccccc4n3)n2)cc1` [Compound 124], the “PDE-10 EC300 (μM)” value is on record as “++ (1 < IC50 or EC300 < 10 μM ++)”.
Then `Cn1cc(-c2cccnc2)nc1CCc1cnc2ccccc2n1` [Compound 51], with “++ (1 < IC50 or EC300 < 10 μM ++)”; and `c1ccc(-c2c[nH]c(CCc3cc4ccccc4cn3)n2)cc1` [Compound 36], with “++ (1 < IC50 or EC300 < 10 μM ++)”.
Then `c1ccc2nc(CCc3nc(-c4ccsc4)c[nH]3)ccc2c1` [Compound 67], with “++++ (IC50 or EC300 < 0.5 μM ++++)”; and `Cn1cc(-c2ccccc2)nc1CCc1cnc2ccccc2n1` [Compound 20], with “+++ (0.5 < IC50 or EC300 < 1 μM +++)”.
The result for `O=c1[nH]c(CCc2nc(-c3cccc(F)c3)c[nH]2)nc2ccccc12` [Compound 61] reads “++ (1 < IC50 or EC300 < 10 μM ++)”; that for `Cn1c(CCc2ccc3ccccc3n2)nc2c3ncccc3ccc21` [Compound 155], “+++ (0.5 < IC50 or EC300 < 1 μM +++)”.
For the molecule `Cc1ncc(C)n2nc(CCc3ccc4ccc5ncccc5c4n3)nc12` [Compound 142], the “PDE-10 EC300 (μM)” value is reported as “++++ (IC50 or EC300 < 0.5 μM ++++)”.
Take `c1ccc(-c2c[nH]c(CCc3ccc4ccccc4n3)n2)cc1` [Compound 11]: the “PDE-10 EC300 (μM)” value is recorded as “++++ (IC50 or EC300 < 0.5 μM ++++)”.
The result for `COc1nc2ccccc2nc1CCc1nc2c3cccnc3ccc2n1C` [Compound 144] reads “++ (1 < IC50 or EC300 < 10 μM ++)”; that for `O=c1[nH]c(CCc2nc(-c3ccccc3)c[nH]2)nc2ccncc12` [Compound 5], “+++ (0.5 < IC50 or EC300 < 1 μM +++)”.
The result for `Cc1nc(CCc2nc3c4cccnc4ccc3n2C)nc2c1CCC2` [Compound 210] reads “++++ (IC50 or EC300 < 0.5 μM ++++)”; that for `O=c1[nH]c(CCc2nc(-c3ccccc3)c[nH]2)nc2ccccc12` [Compound 3], “+ (IC50 or EC300 > 10 μM +)”.
Take `c1ccc2nc(CCc3nc4ccc5ncccc5n4n3)cnc2c1` [Compound 145]: the “PDE-10 EC300 (μM)” value is recorded as “+ (IC50 or EC300 > 10 μM +)”.
On to `Cn1cc(-c2ccccc2)nc1CCc1ccc2ccccc2n1` [Compound 19], for which the “PDE-10 EC300 (μM)” value is reported as “++++ (IC50 or EC300 < 0.5 μM ++++)”.
The result for `c1ccc2nc(CCc3nc4c(ccc5ncccc54)[nH]3)cnc2c1` [Compound 102] reads “++ (1 < IC50 or EC300 < 10 μM ++)”; that for `Cn1cc(-c2ccsc2)nc1CCc1ccc2ccccc2n1` [Compound 40], “++++ (IC50 or EC300 < 0.5 μM ++++)”; that for `Cn1cc(-c2cccc(F)c2)nc1CCc1ccc2ccccc2n1` [Compound 43], “++ (1 < IC50 or EC300 < 10 μM ++)”.
As for `Cn1cc(-c2ccccc2F)nc1CCc1cnc2ccccc2n1` [Compound 48], the “PDE-10 EC300 (μM)” value is listed as “++++ (IC50 or EC300 < 0.5 μM ++++)”.
Then `O=c1[nH]c(CCc2nc(-c3ccccc3)c[nH]2)nc2cnccc12` [Compound 4], with “++ (1 < IC50 or EC300 < 10 μM ++)”.
The result for `c1ccc(-c2c[nH]c(OCc3cnc4ccccc4n3)n2)cc1` [Compound 123] reads “++ (1 < IC50 or EC300 < 10 μM ++)”; that for `Cn1c(CCc2ccc3ncccc3n2)nc2c3cccnc3ccc21` [Compound 204], “++++ (IC50 or EC300 < 0.5 μM ++++)”; that for `Cc1cccc(-c2c[nH]c(CCc3nc4ccccc4c(=O)[nH]3)n2)c1` [Compound 56], “++++ (IC50 or EC300 < 0.5 μM ++++)”.
The result for `c1ccc2nc(CCc3nc(-c4ccsc4)c[nH]3)cnc2c1` [Compound 73] reads “++++ (IC50 or EC300 < 0.5 μM ++++)”; that for `c1ccc(CCc2nc(-c3ccccc3)c[nH]2)cc1` [Compound 31], “+ (IC50 or EC300 > 10 μM +)”.
Take `c1coc(-c2c[nH]c(CCc3cnc4ccccc4n3)n2)c1` [Compound 72]: the “PDE-10 EC300 (μM)” value was “++++ (IC50 or EC300 < 0.5 μM ++++)”.
The result for `O=c1[nH]c(CCc2nc(-c3ccncc3)c[nH]2)nc2ccccc12` [Compound 57] reads “+ (IC50 or EC300 > 10 μM +)”.
The result for `Cc1ncc(C)n2nc(CCc3ccc4ccccc4n3)nc12` [Compound 125, 2-(2-(5,8-Dimethyl-[1,2,4]triazolo[1,5-a]pyrazin-2-yl)ethyl)quinoline] reads “++++ (IC50 or EC300 < 0.5 μM ++++)”.
Then `C(=C\c1nc(-c2ccccc2)c[nH]1)/c1ncc2ccccc2n1` [Compound 12], with “++ (1 < IC50 or EC300 < 10 μM ++)”.
Turning to `c1ccc2nc(CCc3nc4ccc5ncccc5n4n3)ccc2c1` [Compound 146], the “PDE-10 EC300 (μM)” value is recorded as “++++ (IC50 or EC300 < 0.5 μM ++++)”.
As for `Cn1cc(-c2ccco2)nc1CCc1ccc2ccccc2n1` [Compound 39], the “PDE-10 EC300 (μM)” value is given as “++++ (IC50 or EC300 < 0.5 μM ++++)”.
For the molecule `Fc1cccc(-c2c[nH]c(CCc3cnc4ccccc4n3)n2)c1F` [Compound 77], the “PDE-10 EC300 (μM)” value is “++++ (IC50 or EC300 < 0.5 μM ++++)”.
For `Cn1cc(-c2ccco2)nc1CCc1cnc2ccccc2n1` [Compound 45], the “PDE-10 EC300 (μM)” value is on record as “++++ (IC50 or EC300 < 0.5 μM ++++)”.
On to `O=c1[nH]c(CCc2nc(-c3ccc(F)cc3)c[nH]2)nc2ccccc12` [Compound 60], for which the “PDE-10 EC300 (μM)” value is listed as “++ (1 < IC50 or EC300 < 10 μM ++)”.
The result for `Fc1cccc(-c2c[nH]c(CCc3ccc4ccccc4n3)n2)c1` [Compound 70] reads “++ (1 < IC50 or EC300 < 10 μM ++)”; that for `Fc1ccccc1-c1c[nH]c(CCc2ccc3ccccc3n2)n1` [Compound 69], “++ (1 < IC50 or EC300 < 10 μM ++)”.
The result for `Cc1nc(CCc2nc3c4cccnc4ccc3n2C)nc(C)c1Cl` [Compound 208] reads “++++ (IC50 or EC300 < 0.5 μM ++++)”; that for `Fc1cccc(-c2c[nH]c(CCc3cnc4ccccc4n3)n2)c1` [Compound 76], “++++ (IC50 or EC300 < 0.5 μM ++++)”.
Regarding `Cn1cc(-c2cccc(F)c2F)nc1CCc1cnc2ccccc2n1` [Compound 50], the “PDE-10 EC300 (μM)” value is “++++ (IC50 or EC300 < 0.5 μM ++++)”.
The result for `O=c1[nH]c(CCc2nc(-c3ccc4c(c3)OCO4)c[nH]2)nc2ccccc12` [Compound 65] reads “++ (1 < IC50 or EC300 < 10 μM ++)”; that for `O=c1[nH]c(CCc2nc(-c3ccccc3F)c[nH]2)nc2ccccc12` [Compound 59], “++ (1 < IC50 or EC300 < 10 μM ++)”.
Then `C(=C\c1nc(-c2ccccc2)c[nH]1)/c1ccccc1` [Compound 30], with “+ (IC50 or EC300 > 10 μM +)”.
Then `Cn1cc(-c2ccccc2)nc1CCc1nc2ccccc2c(=O)[nH]1` [Compound 8], with “++++ (IC50 or EC300 < 0.5 μM ++++)”; and `c1ccc(-c2c[nH]c(CCc3cnc4ccncc4n3)n2)cc1` [Compound 17], with “+++ (0.5 < IC50 or EC300 < 1 μM +++)”.
Turning to `Cn1c(CCc2cnc3ccccc3n2)nc2c3c(ccc21)OCCO3` [Compound 211], the “PDE-10 EC300 (μM)” value is recorded as “++++ (IC50 or EC300 < 0.5 μM ++++)”.
On to `Fc1ccccc1-c1c[nH]c(CCc2cnc3ccccc3n2)n1` [Compound 75], for which the “PDE-10 EC300 (μM)” value is listed as “++++ (IC50 or EC300 < 0.5 μM ++++)”.
Then `Cn1cc(-c2ccccc2F)nc1CCc1ccc2ccccc2n1` [Compound 42], with “++++ (IC50 or EC300 < 0.5 μM ++++)”; and `c1ccc(-c2c[nH]c(CCc3cnc4cccnc4n3)n2)cc1` [Compound 16], with “+++ (0.5 < IC50 or EC300 < 1 μM +++)”.
